Assay results reported in US7432376B2, “Tropane prodrugs with central nervous system activity” (Research Foundation of State University of New York, The, priority 2006, dated 2008).
Like-named read-outs stand apart in the source and are kept apart here.

Assays:
[1] = biological target: T1, 5-HT transport sites (SERT) (Rattus norvegicus, UniProt P31652); assay: Displacement of [3H]paroxetine binding at 5-HT transport sites in membranes from rat frontal cortex; parameters: species or system Sprague-Dawley rat
T1 construct: tissue Pel-Freez, Rogers, Ark; host or cells: rat frontal cortex membranes
T1 sequence (P31652 whole entry): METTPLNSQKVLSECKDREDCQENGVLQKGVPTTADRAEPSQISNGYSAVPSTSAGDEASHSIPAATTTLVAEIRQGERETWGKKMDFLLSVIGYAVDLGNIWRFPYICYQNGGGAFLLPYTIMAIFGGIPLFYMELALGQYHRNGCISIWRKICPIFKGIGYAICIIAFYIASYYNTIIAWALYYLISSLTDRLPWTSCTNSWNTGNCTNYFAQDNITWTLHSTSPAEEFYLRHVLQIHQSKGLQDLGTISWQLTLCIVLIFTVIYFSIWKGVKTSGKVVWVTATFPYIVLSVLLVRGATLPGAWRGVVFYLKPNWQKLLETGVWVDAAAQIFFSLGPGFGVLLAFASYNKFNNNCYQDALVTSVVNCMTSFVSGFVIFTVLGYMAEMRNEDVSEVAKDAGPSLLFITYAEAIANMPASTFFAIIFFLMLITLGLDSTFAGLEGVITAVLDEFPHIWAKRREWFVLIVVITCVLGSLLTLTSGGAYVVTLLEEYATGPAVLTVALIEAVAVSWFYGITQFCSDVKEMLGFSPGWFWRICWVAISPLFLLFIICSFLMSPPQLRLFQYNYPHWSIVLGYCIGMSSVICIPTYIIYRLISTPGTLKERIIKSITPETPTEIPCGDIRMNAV
Protocol: (§1) Binding of at biogenic amine transporters was determined using striatum and frontal cortex dissected from frozen Sprague-Dawley rat brains (Pel-Freez, Rogers, Ark.). […] Affinities of analogs at 5-HT transport sites were determined by displacement of [^3H]paroxetine binding in membranes from rat frontal cortex, using 50 mg (original wet weight) of membranes and 0.4 nM [^3H]paroxetine. Non-specific binding was determined in the presence of 10 μM fluoxetine. Binding of analogs at norepinephrine transport sites was determined by displacement of [^3H]nisoxetine binding in membranes from rat forebrain, using 0.7 nM [^3H]nisoxetine. Non-specific binding was determined in the presence of 1 μM desipramine.
(§2) Potencies were calculated from displacement curves using 7-10 concentrations of unlabeled analogs, as analyzed by non-linear curve fitting. […] For [^3H]paroxetine and [^3H]nisoxetine binding assays, Ki values were calculated using the Cheng-Prusoff equation.^1 All data are mean values±S.E.M. of at least three separate experiments, each of which was conducted in triplicate.

[2] = biological target: T2, dopamine transport sites (DAT) (Rattus norvegicus, UniProt P23977); assay: Displacement of [125I]RTI-55 binding at dopamine transport sites in membranes from rat striatum; parameters: species or system Sprague-Dawley rat
T2 construct: tissue Pel-Freez, Rogers, Ark; host or cells: rat striatum membranes
T2 sequence (P23977 whole entry): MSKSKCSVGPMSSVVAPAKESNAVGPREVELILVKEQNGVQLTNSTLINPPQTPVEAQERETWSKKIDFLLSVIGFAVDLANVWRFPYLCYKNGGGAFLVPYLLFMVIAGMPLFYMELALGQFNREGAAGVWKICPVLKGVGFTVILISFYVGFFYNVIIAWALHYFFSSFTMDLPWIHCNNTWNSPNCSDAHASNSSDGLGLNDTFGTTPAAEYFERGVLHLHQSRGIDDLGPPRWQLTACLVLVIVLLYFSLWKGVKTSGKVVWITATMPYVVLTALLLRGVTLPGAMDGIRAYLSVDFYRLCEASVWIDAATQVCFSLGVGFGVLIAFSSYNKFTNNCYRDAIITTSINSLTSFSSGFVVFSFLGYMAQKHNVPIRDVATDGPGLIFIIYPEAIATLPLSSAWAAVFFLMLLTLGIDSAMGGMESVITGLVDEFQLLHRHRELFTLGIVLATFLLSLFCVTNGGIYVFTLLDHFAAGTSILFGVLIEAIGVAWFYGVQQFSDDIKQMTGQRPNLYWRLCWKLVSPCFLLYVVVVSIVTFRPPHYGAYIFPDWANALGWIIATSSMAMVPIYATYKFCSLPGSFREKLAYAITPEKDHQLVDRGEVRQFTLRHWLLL
Protocol: as §1, §2

CCCCCCCCCCCC(=O)OC(CC)C1C(c2ccc(C)cc2)CC2CCC1N2C (stereo not drawn) [Compound 43a]
Ki ([1]; rat frontal cortex membranes, 0.4 nM [3H]paroxetine, Ki by Cheng-Prusoff, mean of at least three experiments, read-out: Ki SERT): 1.91 nM
IC50 ([2]; rat striatum membranes, 10 pM [125I]RTI-55, mean of at least three experiments, read-out: IC50 DA): 0.891 nM

CCC(O)C1C(c2ccc(C)cc2)CC2CCC1N2C (stereo not drawn) [Compound 41a]
Ki [1]: 161 nM
IC50 [2]: 3.69 nM

CCC(OC(C)=O)C1C(c2ccc(C)cc2)CC2CCC1N2C (stereo not drawn) [Compound 42a]
Ki [1]: > 10000 nM
IC50 [2]: 87.9 nM

CCC(OC(C)=O)C1C(c2ccc3ccccc3c2)CC2CCC1N2C (stereo not drawn) [Compound 42b]
Ki [1]: 1.06 nM
IC50 [2]: 1.72 nM

CCCCCCCCCCCC(=O)OC(CC)C1C(c2ccc3ccccc3c2)CC2CCC1N2C (stereo not drawn) [Compound 43b]
Ki [1]: 90.8 nM
IC50 [2]: 109 nM

CCC(O)C1C(c2ccc3ccccc3c2)CC2CCC1N2C (stereo not drawn) [Compound 41b]
Ki [1]: 588 nM
IC50 [2]: 6.22 nM
